Laboratory results published in patent publication US7108997B2, “Assay for detecting inhibitors of the enzyme myeloperoxidase” (AstraZeneca AB, priority 2001, dated 2006).
Like-named read-outs stand apart in the source and are kept apart here.

Key:
Assay type in all cases: biochemical
[1] = target: T1, purified human myeloperoxidase (Homo sapiens, UniProt P05164); experiment: Taurine chloramine/TMB assay of HOCl production by purified myeloperoxidase with test compounds; settings: for [HOCl]: HOCl generated by myeloperoxidase in presence of 10 μM test compounds (DMSO 0.1%), stopped after five minutes with catalase, None = 56.2 ± 2.1; for % Inhibition: inhibition of HOCl production, 10 μM test compounds (DMSO 0.1%), negative = enhancement
T1 sequence (P05164 49-745): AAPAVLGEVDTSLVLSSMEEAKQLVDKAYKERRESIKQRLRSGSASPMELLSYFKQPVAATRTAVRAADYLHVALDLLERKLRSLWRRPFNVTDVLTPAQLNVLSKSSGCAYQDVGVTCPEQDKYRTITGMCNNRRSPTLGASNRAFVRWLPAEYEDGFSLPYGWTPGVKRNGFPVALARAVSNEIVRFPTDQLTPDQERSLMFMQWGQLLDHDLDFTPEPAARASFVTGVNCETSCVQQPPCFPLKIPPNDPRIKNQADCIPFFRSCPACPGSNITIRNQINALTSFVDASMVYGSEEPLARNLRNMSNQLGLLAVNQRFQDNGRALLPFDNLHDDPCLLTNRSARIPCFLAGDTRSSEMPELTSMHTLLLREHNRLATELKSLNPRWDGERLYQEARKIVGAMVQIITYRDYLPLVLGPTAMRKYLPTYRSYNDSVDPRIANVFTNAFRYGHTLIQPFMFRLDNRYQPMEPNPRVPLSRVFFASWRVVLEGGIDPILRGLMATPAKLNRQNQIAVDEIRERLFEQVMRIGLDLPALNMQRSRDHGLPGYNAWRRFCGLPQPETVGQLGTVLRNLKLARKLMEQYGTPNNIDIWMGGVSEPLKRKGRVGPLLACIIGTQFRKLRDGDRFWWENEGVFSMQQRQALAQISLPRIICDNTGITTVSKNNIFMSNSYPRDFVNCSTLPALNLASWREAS
Description: The taurine chloramine assay of the present invention was used to detect HOCl generated by purified human myeloperoxidase. Hydrogen peroxide (100 μM) was added to 20 mM phosphate buffer pH 6.5 containing 20 nM myeloperoxidase, 100 mM NaCl and 10 mM taurine. The mixture was incubated for 15 minutes at room temperature and the reaction stopped by adding catalase (10 μg/ml). Five minutes later developing reagent was added to detect the generated taurine chloramine. The amount of taurine chloramine produced was compared to that formed by adding 100 μM HOCl to the PBST. […] The concentration of stock hydrogen peroxide was determined using E240 43.6 M^−1 cm^−1 and that of stock hypochlorite using E292 350 M^−1 cm^−1.
Hypochlorous acid was generated by myeloperoxidase in the absence or presence of 10 μM test compounds under the conditions described above for the time course experiment. Reactions were initiated by adding hydrogen peroxide and stopped five minutes later by adding catalase.

MPO [2] = target: T2, MPO (Homo sapiens, UniProt P05164); experiment: In vitro MPO assay measuring HOCl production (Example 1); set-up: purchased Planta
T2 sequence (P05164 49-745): T1 sequence (P05164 49-745)
Description: Here we describe an in vitro MPO assay that was developed to assess inhibition of enzyme activity. Essentially the MPO assay was designed to measure the production of hypochlorous acid (HOCl), which is the key physiological product generated by the enzyme in vivo. An outline of the assay reactions is given:
Compounds were preincubated with the MPO enzyme in buffer for about 15 minutes prior to start of the reaction with H2O2. The whole reaction was carried out at room temperature for 10 minutes in a 96-well plate. […] All test concentrations were done in duplicate with at least two separate determinations (n=2; unless otherwise stated). The inhibitory concentration for a compound is presented as pIC50, which is −log IC50.

MPO [3] = target: T2, MPO; experiment: MPO taurine chloramine/TMB assay with catalase stop (Example 5)
Description: Assay buffer: 20 mM sodium/potassium phosphate buffer pH 6.5 containing 10 mM taurine and 100 mM NaCl.
Developing reagent: 2 mM TMB, 200 μM KI, 200 mM acetate buffer pH 5.4 with 20% DMF.
To 10 μl of diluted compounds in assay buffer, 40 μl of MPO (final concentration 2.5 nM) was added for 10 minutes at room temperature. Then 50 μl of H2O2 (final concentration 100 μM), or assay buffer alone as a control, were added for 10 minutes at room temperature. […] Plates were mixed and subsequently read at 650 nm.

[4] = target: T1, purified human myeloperoxidase; experiment: Taurine chloramine/TMB assay of HOCl production by purified myeloperoxidase with test compounds; settings: catalase at 20 μg/ml

Molecule	[HOCl] [1] [µM]	inhibition at 10 µM ([1]; read-out: % Inhibition) [%]	also measured
COc1ccc(OC)cc1 [1,4-Dimethoxybenzene]	15.2 ± 1.0	73	
COc1ccc2[nH]cc(CCO)c2c1 [5-Methoxytryptophol]			IC50 (MPO [2]): 0.501 µM
C[S+](C)[O-] [DMSO, dimethylsulphoxide]	52.8 ± 1.2		% Inhibition [1]: 6%
Nc1ccc(S(=O)(=O)c2ccc(N)cc2)cc1 [Dapsone]	1.8 ± 0.1	97	IC50 (MPO [3]; in the absence of tyrosine): 0.257 ± 0.073 µM; IC50 (MPO [3]; in the presence of 8 μM tyrosine): 7.12 ± 0.61 µM
Nc1ccc(S(=O)(=O)Nc2nccs2)cc1 [N-1(2-thiazolyl)-sulfanilamide]			IC50 (MPO [2]): 1 µM
N[C@@H](Cc1ccc(O)cc1)C(=O)O [Tyrosine]	107.0 ± 0.5	-90	
Nc1ccc(Br)cc1 [p-Bromoaniline]	2.5 ± 0.1		inhibition at 10 µM [1]: 95.6%
Catalase	8.8 ± 1.3		% Inhibition [1]: 84%; inhibition of the formation of HOCl [4]: 90%
